Assay results published in patent US20030044861A1, “Method for diagnosing neoplasia” (priority 1998, published 2003).
Entries after “also recorded” stand apart in the source; their conditions may differ. Like-named read-outs stand apart in the source and are kept apart here.

How the values were obtained:
[1] = tested on: PDE peak B (novel cGMP-specific PDE) from SW-480 cells; test: cGMP hydrolysis by PDE peak B; assay type: biochemical, human; settings: for IC50: cGMP hydrolysis, 0.25 μM 3H-cGMP substrate; for Km: peak B
[2] = tested on: HT-29 cells; test: Apoptosis and necrosis by morphology (acridine orange/ethidium bromide); assay type: cell-based; settings: for % Apoptosis / % Necrosis: HT-29 cells treated for 6 days
Experimental: In one type of apoptosis assay, suspected neoplastic cells are removed from a patient. The cells are then grown in culture in the presence or absence of a cGMP-specific PDE inhibitor. Apoptotic cells are measured by combining both the attached and “floating” compartments of the cultures. The protocol for treating tumor cell cultures with PDE inhibitors and related compounds to obtain a significant amount of apoptosis has been described in the literature. (See, Piazza, G. A., et al., Cancer Research, 55:3110-16, 1995, which is incorporated herein by reference). The novel features of this assay include collecting both floating and attached cells, identification of the optimal treatment times and dose range for observing apoptosis, and identification of optimal cell culture conditions.
Following treatment of neoplastic and normal cells with a test compound, cultures can be assayed for apoptosis and necrosis by fluorescent microscopy following labeling with acridine orange and ethidium bromide. The method for measuring apoptotic cell number has previously been described by Duke & Cohen, “Morphological And Biochemical Assays Of Apoptosis,” Current Protocols In Immunology, Coligan et al., eds. 3.17.1-3.17.16 (1992, which is incorporated herein by reference).
For example, floating and attached cells are collected, and aliquots of cells are centrifuged. The cell pellet is then resuspended in media and a dye mixture containing acridine orange and ethidium bromide. The mixture is then examined microscopically for morphological features of apoptosis.
Apoptotic and necrotic cell death was determined as previously described (Duke and Cohen, In: Current Protocols in Immunology, 3.17.1-3.17.16, New York, John Wiley and Sons, 1992). […] All data were collected from the same experiment.
The diagnostic method of this invention is used to determine whether a particular neoplasia is sensitive to treatment with a cGMP-specific PDE inhibitor. The apoptosis inducing activity for a series of phosphodiesterase inhibitors, specific for different PDEs, was determined. HT-29 cells were treated for 6 days with various inhibitors of phosphodiesterase. Apoptosis and necrosis were determined morphologically after acridine orange and ethidium bromide labeling in accordance with the assay described, supra.

[3] = tested on: colonic polyps of familial polyposis patients; test: Apoptosis clinical study, apoptotic labeling index (ALI) in biopsies; assay type: in vivo, human
Experimental: Increases in apoptosis are indicative that the neoplasia in question is sensitive to treatment with a cGMP-specific PDE inhibitor, such as sulindac sulfone (aposulind). A human in vivo aposulind-induced selective induction of apoptosis in colonic polyps is described below. Six familial polyposis patients per group were administered one of three doses of aposulind (200 mg, 400 mg which was later lowered to 200 mg for most patients in the group, or 300 mg) twice daily (BID).
Biopsies are taken from patients and used to investigate possible cellular mechanisms of apoptosis. Biopsy samples are placed in transfer media (500 ml RPMI1640 containing 50 ml fetal calf serum, 5×10^8 units penicillin G, and 5×10^6 μg streptomycin) and kept on ice for less than 1 hour until transfer to the pathology department. Upon receipt in the pathology department, samples are removed from the transfer media and oriented mucosa up, serosa down on filter paper, placed between biopsy sponges in a tissue cassette, and fixed in 10% neutral buffered formalin for 24 hours. Samples are then transferred to 70% ethanol and embedded in paraffin. Samples are oriented perpendicularly to the tissue cassette during final orientation in paraffin for longitudinal crypt exposure and easy visualization of mucosa and the relation to the basement membrane.
Four micron sections of tissue were cut, mounted, deparaffinized, rehydrated in graded alcohol, and treated with pepsin (5 mg/ml) to digest protein in the tissue. Sections were washed and treated with 2% hydrogen peroxide (H2O2) in PBS to quench endogenous peroxidase and washed again. Tissue samples were then circled with a PAP pen (Research Products Int., 800-323-9814) to produce a hydrophobic barrier to concentrate reagents on the sample. If a DNase positive control is desired, the sample is treated with DNase for 10 minutes, equilibrated in transferase buffer, and treated using 100 enzyme units/ml terminal transferase enzyme (TdT) at 37° C. for 60 minutes. Samples are washed and anti-digoxigenin-peroxidase is applied. Each sample is then covered with a coverslip and left in a humid box at room temperature for 30 minutes. After washing three times peroxidase is developed using DAB for nine minutes. After sufficient color development, the slides are washed and counterstained with hemotoxylin and eosin.
Apoptotic and nonapoptotic cells are counted on the basis of staining and morphology. An apoptotic labeling index (ALI) is calculated by dividing the total number of apoptotic cells counted by the total number of epithelial cells counted and expressing the quotient as a percentage.

[4] = biological target: T1, PDE peak A (PDE5) from SW-480 cells (Homo sapiens, UniProt O76074); test: cGMP hydrolysis by PDE peak A; assay type: biochemical
T1 construct: SW-480 cells are collected and homogenized; The homogenate is centrifuged, and the supernatant is loaded onto a DEAE-Trisacryl M column; endogenous in cells; host or cells: SW-480 human colon carcinoma cells, DEAE-Trisacryl M fraction peak A

[5] = biological target: T2, GST-PDE5 binding domain fusion protein (Homo sapiens, UniProt O76074); test: Cyclic GMP binding assay, 3H-cGMP saturation binding; settings: read-out: Km for cGMP; 3H-cGMP saturation binding curve at 25° C.
T2 construct: made in house; host or cells: E. coli BL21
Experimental: The assay was performed in a total volume of 100 μL containing 5 mM sodium phosphate buffer (pH 6.8), 1 mM EDTA and 0.25 mg/ml BSA and H^3-cGMP (5.8 Ci/mmol, NEN). The purified soluble GST-PDE5 binding domain fusion protein (5 to 50 μg/assay) was incubated at […] for one hour and then transferred to a Brandel MB-24 Cell Harvester with GF/B as the filter membrane. Next the fusion protein was washed twice with 10 mL of cold 5 mM potassium buffer, pH 6.8. The membranes were cut out and transferred to scintillation vials, then 1 ml of H2O and 6 ml of Ready Safe liquid scintillation cocktail as added and the samples were counted on a Beckman LS 6500 scintillation counter. A ^3H-cGMP saturation binding curve at 25° C. was generated.

[6] = biological target: PDE5 cGMP-binding sites (Bos taurus, UniProt Q28156); settings: bovine PDE5; read-out: Kd of high affinity binding site; cited from earlier work
[7] = tested on: neoplastic cells; test: Apoptosis induction and growth inhibition in neoplastic cells (words only); assay type: cell-based

SMILES: COc1ccc(C2CNC(=O)C2)cc1OC1CCCC1 (stereo not drawn) [Rolipram]
- Sensitivity of the new cGMP-PDE to inhibition (in words) [1]: relatively insensitive
- IC50 [1]: > 100 µM

SMILES: CC1=C(CC(=O)O)c2cc(F)ccc2/C1=C\c1ccc(S(C)(=O)=O)cc1 [Exisulind, (Z)-5-fluoro-2-methyl-1-[[4-(methylsulfonyl)phenyl]methylene]indene-3-yl acetic acid]
- Apoptotic and necrotic cell death (FIG. 1, in words) ([2]; HT-29 cells treated for six days): capable of causing apoptotic cell death without inducing neoplastic cell necrosis
- Change in ALI after treatment ([3]; 200 mg BID group): did not demonstrate any elevation
- Mean Polyp ALI ([3]; 200 mg BID, Month 1): 4.05%
- Mean Polyp ALI ([3]; 200 mg BID, Month 4): 4.52%
- Mean Polyp ALI ([3]; 200 mg BID, Month 6): 5.90%
- Mean Polyp ALI ([3]; 300 mg BID, Month 1): 4.90%
- Mean Polyp ALI ([3]; 300 mg BID, Month 6): 15.63%
- Change in ALI of polyps after treatment ([3]; 300 mg BID, six months): two fold increase
- Change in ALI of dysplastic tissue after treatment ([3]; 400/200 mg BID group while uniformly dosed at 400 mg BID): two-fold elevation
- Mean Polyp ALI ([3]; 400/200 mg BID, Month 1): 10.98%
- Mean Polyp ALI ([3]; 400/200 mg BID, Month 4): 5.51%
- Mean Polyp ALI ([3]; 400/200 mg BID, Month 6): 5.10%
- Polyp size and number ([3]; familial polyposis patients): diminution of polyp size and decrease in polyp number
- Change in normal mucosa ALI versus baseline ALI ([3]; normal mucosa, any treatment group, over time): no significant change
- Apoptosis levels in regressing polyps ([3]; over six months of treatment): doubled

SMILES: CCOC(=O)C1=C[C@]2(CC)CCCN3CCc4c(n1c1ccccc41)[C@@H]32 [Vinpocetine]
- Sensitivity of the new cGMP-PDE to inhibition (in words) [1]: relatively insensitive
- IC50 [1]: > 100 µM

SMILES: Nc1nc2c(ncn2[C@@H]2O[C@@H]3COP(=O)(O)O[C@H]3[C@H]2O)c(=O)[nH]1 [cGMP]
- Km ([4]; read-out: Km of the enzyme for cGMP, peak A): 1.07 µM
- Km ([1]; decreasing slope of Eadie-Hofstee plot, absence of cAMP, read-out: apparent Km): 8.4 µM
- Km ([1]; increasing slope of Eadie-Hofstee plot, called submicromolar affinity, read-out: Km): < 1 µM
- Km [5]: 0.41 ± 0.08 µM
- Kd [6]: 0.5 µM

SMILES: COc1nc2c([nH]1)c(=O)n(C)c(=O)n2CC(C)C [8-methoxy-IBMX]
- % Apoptosis [2]: 2%
- % Necrosis [2]: 1%

SMILES: CCCOc1ccccc1-c1nc2nn[nH]c2c(=O)[nH]1 [Zaprinast]
- Mode of inhibition of cGMP hydrolysis, peak A [4]: competitive inhibition
- Apoptosis induction in neoplastic cells (in words) [7]: do not have significant apoptosis-inducing or growth-inhibiting properties
- Growth inhibition of neoplastic cells (in words) [7]: do not have significant apoptosis-inducing or growth-inhibiting properties
- Apoptosis induction in neoplastic cells (in words) ([7]; listed as zaprinast): none of the three
- Growth inhibition of neoplastic cells (in words) ([7]; listed as zaprinast): none of the three

SMILES: CC(C)Cn1c(=O)n(C)c(=O)c2[nH]cnc21 [IBMX]
- % Apoptosis [2]: 4%
- % Necrosis [2]: 13%

SMILES: COc1cc(/C=C2/C(C)=C(CC(=O)NCc3ccccc3)c3cc(F)ccc32)cc(OC)c1OC [Compound E, [(Z)-5-fluoro-2-methyl-1-(3,4,5-trimethoxybenzylidene)-3-indenylacetamide, N-benzyl]]
- Mode of inhibition of cGMP hydrolysis, peak A [4]: competitively inhibit
- Ratio (IC50 PeakA/Peak B) ([4]; cGMP hydrolysis): 1.0
- Mode of inhibition of cGMP hydrolysis, peak B [1]: competitively inhibit
- IC50 [1]: 0.37 µM
- Apoptosis induction in neoplastic cells (in words) [7]: induce apoptosis in neoplastic cells
- Growth inhibition of neoplastic cells (in words) [7]: precisely the opposite

SMILES: CCCCOc1cc(CC2CNC(=O)N2)ccc1OC (stereo not drawn) [RO-20-1724]
- % Apoptosis [2]: 11%
- % Necrosis [2]: 2%

SMILES: O=C([O-])C1CCN(c2nc(NCc3ccc4c(c3)OCO4)c3cc(Cl)ccc3n2)CC1.[Na+] [Compound E4021]
- Sensitivity of the new cGMP-PDE to inhibition (in words) [1]: relatively insensitive
- Apoptosis induction in neoplastic cells (in words) [7]: none of the three; also recorded: do not have significant apoptosis-inducing or growth-inhibiting properties
- Growth inhibition of neoplastic cells (in words) [7]: none of the three; also recorded: do not have significant apoptosis-inducing or growth-inhibiting properties

SMILES: CC1(C)C(=O)Nc2ccc(C3=NNC(=O)CC3)cc21 [Indolidan]
- Ratio (IC50 PeakA/Peak B) ([4]; cGMP hydrolysis): <0.31
- Sensitivity of the new cGMP-PDE to inhibition (in words) [1]: relatively insensitive
- IC50 [1]: > 100 µM

SMILES: CCCCCC[C@@H]([C@@H](C)O)n1cnc2c(N)ncnc21 (racemic) [EHNA]
- IC50 ([4]; cGMP hydrolysis, 0.25 μM 3H-cGMP substrate): > 100 µM
- IC50 [1]: 3.7 µM

SMILES: Clc1cccc(Nc2nnc(-c3ccccc3)c3ccccc23)c1 [MY5445]
- % Apoptosis [2]: 80%
- % Necrosis [2]: 5%

SMILES: CCCc1nn(C)c2c(=O)[nH]c(-c3cc(S(=O)(=O)N4CCN(C)CC4)ccc3OCC)nc12 [Sildenafil]
- Inhibition of peak A activity (in words) [4]: inhibited activity of peak A
- Apoptosis induction in neoplastic cells (in words) [7]: none of the three; also recorded: do not have significant apoptosis-inducing or growth-inhibiting properties
- Growth inhibition of neoplastic cells (in words) [7]: none of the three; also recorded: do not have significant apoptosis-inducing or growth-inhibiting properties
